Source: the supplement of paper PMC10307832

compound: COc1cc(Nc2ncc(F)c(Nc3ccc4c(n3)NC(=O)C(C)(C)O4)n2)cc(OC)c1OC [R406] + Cc1nc(Nc2ncc(C(=O)Nc3c(C)cccc3Cl)s2)cc(N2CCN(CCO)CC2)n1 [Dasatinib] (partner 0.075 µM); assay: relative viability (nuclei count vs DMSO), 5 days (fraction); higher = more cells survive; conditions: first compound 0.08 µM
Summary of the method: (§1)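 Dosing by pin tool came one day after lung cancer cell lines were seeded in 1536-well plates, using either one drug or a fixed anchor-drug dose plus five library-drug doses (not always all listed) in √10 steps. After 5 days, nuclei were counted on 4× images. Relative viability is treated-well nuclei count divided by vehicle-well nuclei count, and values are medians of duplicate plates.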

| Cell Line | relative viability |
| --- | --- |
| EMC-BAC-2 | 0.293 |
| NCI-H2085 | 0.249 |
| HCC-366 | 0.62 |
| NCI-H1666 | 0.811 |
| NCI-H647 | 0.168 |
| LK-2 | 0.26 |
| NCI-H2087 | 0.782 |
| NCI-H358 | 0.165 |
| NCI-H2170 | 0.481 |
| H3255 | 0.33 |
| COR-L23 | 0.464 |
| COR-L 105 | 0.332 |
| LOU-NH91 | 0.593 |
| ChaGo-K-1 | 0.568 |
| HCC-78 | 0.362 |
| NCI-H1792 | 0.781 |
| NCI-H1623 | 0.534 |
| NCI-H1563 | 0.438 |

same assay, conditions: first compound 0.253 µM

| Cell Line | relative viability |
| --- | --- |
| NCI-H522 | 0.883 |
| NCI-H2342 | 0.321 |
| NCI-H838 | 0.287 |
| NCI-H1650 | 0.362 |
| NCI-H1993 | 0.631 |
| NCI-H441 | 0.659 |
| PC-14 | 0.241 |
| LCLC-103H | 0.538 |
| NCI-H596 | 0.61 |
| NCI-H2126 | 0.619 |
| EMC-BAC-2 | 0.331 |
| NCI-H2085 | 0.283 |
| HCC-366 | 0.799 |
| NCI-H1666 | 0.943 |
| NCI-H647 | 0.161 |
| LK-2 | 0.303 |
| NCI-H2087 | 0.903 |
| NCI-H358 | 0.171 |
| NCI-H2170 | 0.579 |
| COR-L23 | 0.469 |
| COR-L 105 | 0.387 |
| LOU-NH91 | 0.617 |
| ChaGo-K-1 | 0.579 |
| HCC-78 | 0.335 |
| NCI-H1792 | 0.906 |
| NCI-H1623 | 0.507 |
| NCI-H1563 | 0.507 |

same assay, conditions: first compound 0.8 µM

| Cell Line | relative viability |
| --- | --- |
| NCI-H522 | 0.869 |
| NCI-H2342 | 0.341 |
| NCI-H838 | 0.52 |
| NCI-H1650 | 0.288 |
| NCI-H1993 | 0.704 |
| NCI-H441 | 0.851 |
| PC-14 | 0.283 |
| LCLC-103H | 0.539 |
| NCI-H596 | 0.686 |
| NCI-H2126 | 0.596 |
| EMC-BAC-2 | 0.385 |
| NCI-H2085 | 0.251 |
| HCC-366 | 0.735 |
| NCI-H1666 | 0.891 |
| NCI-H647 | 0.251 |
| LK-2 | 0.285 |
| NCI-H2087 | 1.15 |
| NCI-H358 | 0.113 |
| NCI-H2170 | 0.613 |
| H3255 | 0.372 |
| COR-L23 | 0.598 |
| COR-L 105 | 0.354 |
| LOU-NH91 | 0.545 |
| ChaGo-K-1 | 0.661 |
| HCC-78 | 0.4 |
| NCI-H1792 | 0.871 |
| NCI-H1623 | 0.587 |
| NCI-H1563 | 0.448 |

same assay, conditions: first compound 2.53 µM

| Cell Line | relative viability |
| --- | --- |
| NCI-H522 | 0.725 |
| NCI-H2342 | 0.303 |
| NCI-H838 | 0.204 |
| NCI-H1650 | 0.16 |
| NCI-H1993 | 0.316 |
| NCI-H441 | 0.429 |
| PC-14 | 0.105 |
| LCLC-103H | 0.393 |
| NCI-H596 | 0.505 |
| NCI-H2126 | 0.496 |
| EMC-BAC-2 | 0.186 |
| NCI-H2085 | 0.222 |
| HCC-366 | 0.546 |
| NCI-H1666 | 0.648 |
| NCI-H647 | 0.108 |
| LK-2 | 0.346 |
| NCI-H358 | 0.143 |
| NCI-H2170 | 0.267 |
| H3255 | 0.285 |
| COR-L23 | 0.379 |
| COR-L 105 | 0.317 |
| LOU-NH91 | 0.354 |
| ChaGo-K-1 | 0.498 |
| HCC-78 | 0.307 |
| NCI-H1792 | 0.551 |
| NCI-H1623 | 0.482 |
| NCI-H1563 | 0.473 |

same assay, conditions: first compound 8 µM

| Cell Line | relative viability |
| --- | --- |
| NCI-H522 | 0.722 |
| NCI-H2342 | 0.277 |
| NCI-H838 | 0.219 |
| NCI-H1650 | 0.168 |
| NCI-H1993 | 0.453 |
| NCI-H441 | 0.318 |
| PC-14 | 0.0312 |
| LCLC-103H | 0.26 |
| NCI-H596 | 0.173 |
| NCI-H2126 | 0.243 |
| EMC-BAC-2 | 0.173 |
| NCI-H2085 | 0.179 |
| HCC-366 | 0.235 |
| NCI-H1666 | 0.409 |
| NCI-H647 | 0.0646 |
| LK-2 | 0.201 |
| NCI-H2087 | 0.481 |
| NCI-H358 | 0.132 |
| NCI-H2170 | 0.324 |
| H3255 | 0.317 |
| COR-L23 | 0.158 |
| COR-L 105 | 0.204 |
| LOU-NH91 | 0.334 |
| ChaGo-K-1 | 0.442 |
| HCC-78 | 0.237 |
| NCI-H1792 | 0.401 |
| NCI-H1623 | 0.526 |
| NCI-H1563 | 0.376 |

compound: COc1cc(Nc2ncc(F)c(Nc3ccc4c(n3)NC(=O)C(C)(C)O4)n2)cc(OC)c1OC [R406] + CCNC(=O)c1noc(-c2cc(C(C)C)c(O)cc2O)c1-c1ccc(CN2CCOCC2)cc1 [Luminespib] (partner 0.01 µM); assay: as above; conditions: first compound 0.08 µM
Summary of the method: as §1

| Cell Line | relative viability |
| --- | --- |
| NCI-H522 | 1.09 |
| NCI-H2342 | 0.757 |
| NCI-H838 | 0.277 |
| NCI-H1650 | 0.185 |
| NCI-H1993 | 0.78 |
| NCI-H441 | 0.399 |
| PC-14 | 0.153 |
| LCLC-103H | 0.843 |
| NCI-H596 | 0.817 |
| NCI-H2126 | 0.826 |
| EMC-BAC-2 | 1.14 |
| NCI-H2085 | 0.437 |
| NCI-H1666 | 1.02 |
| NCI-H647 | 0.235 |
| LK-2 | 0.187 |
| NCI-H2087 | 0.209 |
| NCI-H358 | 0.313 |
| NCI-H2170 | 0.641 |
| H3255 | 1.04 |
| COR-L23 | 0.665 |
| COR-L 105 | 0.757 |
| LOU-NH91 | 0.329 |
| ChaGo-K-1 | 0.613 |
| HCC-44 | 0.975 |
| NCI-H1792 | 0.423 |
| NCI-H1623 | 0.435 |
| NCI-H1563 | 0.542 |

same assay, conditions: first compound 0.253 µM

| Cell Line | relative viability |
| --- | --- |
| NCI-H522 | 1.31 |
| NCI-H2342 | 0.811 |
| NCI-H838 | 0.319 |
| NCI-H1650 | 0.196 |
| NCI-H1993 | 1.11 |
| NCI-H441 | 0.373 |
| PC-14 | 0.171 |
| LCLC-103H | 1.05 |
| NCI-H596 | 1.2 |
| NCI-H2126 | 0.868 |
| EMC-BAC-2 | 1.15 |
| NCI-H2085 | 0.353 |
| NCI-H1666 | 1.16 |
| NCI-H647 | 0.191 |
| LK-2 | 0.198 |
| NCI-H2087 | 0.123 |
| NCI-H358 | 0.555 |
| NCI-H2170 | 0.622 |
| COR-L23 | 0.919 |
| COR-L 105 | 0.972 |
| LOU-NH91 | 0.357 |
| ChaGo-K-1 | 0.548 |
| HCC-44 | 0.911 |
| NCI-H1792 | 0.424 |
| NCI-H1623 | 0.483 |
| NCI-H1563 | 0.654 |

same assay, conditions: first compound 0.8 µM

| Cell Line | relative viability |
| --- | --- |
| NCI-H522 | 1.32 |
| NCI-H2342 | 0.819 |
| NCI-H838 | 0.176 |
| NCI-H1650 | 0.194 |
| NCI-H1993 | 0.988 |
| NCI-H441 | 0.432 |
| PC-14 | 0.139 |
| LCLC-103H | 1.23 |
| NCI-H596 | 1.27 |
| NCI-H2126 | 0.796 |
| EMC-BAC-2 | 1.27 |
| NCI-H2085 | 0.525 |
| NCI-H1666 | 1.03 |
| NCI-H647 | 0.348 |
| LK-2 | 0.169 |
| NCI-H2087 | 0.162 |
| NCI-H358 | 0.492 |
| NCI-H2170 | 0.856 |
| H3255 | 0.827 |
| COR-L23 | 0.71 |
| COR-L 105 | 0.658 |
| LOU-NH91 | 0.278 |
| ChaGo-K-1 | 0.652 |
| HCC-44 | 1.2 |
| NCI-H1792 | 0.402 |
| NCI-H1623 | 0.66 |
| NCI-H1563 | 0.475 |

same assay, conditions: first compound 2.53 µM

| Cell Line | relative viability |
| --- | --- |
| NCI-H522 | 0.841 |
| NCI-H2342 | 0.581 |
| NCI-H838 | 0.234 |
| NCI-H1650 | 0.184 |
| NCI-H1993 | 0.359 |
| NCI-H441 | 0.277 |
| PC-14 | 0.123 |
| LCLC-103H | 0.701 |
| NCI-H596 | 0.55 |
| NCI-H2126 | 0.597 |
| EMC-BAC-2 | 0.745 |
| NCI-H2085 | 0.319 |
| NCI-H1666 | 1.05 |
| NCI-H647 | 0.128 |
| LK-2 | 0.163 |
| NCI-H358 | 0.147 |
| NCI-H2170 | 0.366 |
| H3255 | 0.69 |
| COR-L23 | 0.3 |
| COR-L 105 | 0.551 |
| LOU-NH91 | 0.297 |
| ChaGo-K-1 | 0.404 |
| HCC-44 | 0.458 |
| NCI-H1792 | 0.278 |
| NCI-H1623 | 0.371 |
| NCI-H1563 | 0.485 |

same assay, conditions: first compound 8 µM

| Cell Line | relative viability |
| --- | --- |
| NCI-H522 | 1.04 |
| NCI-H2342 | 0.76 |
| NCI-H838 | 0.236 |
| NCI-H1650 | 0.182 |
| NCI-H1993 | 0.577 |
| NCI-H441 | 0.209 |
| PC-14 | 0.126 |
| LCLC-103H | 0.663 |
| NCI-H596 | 0.132 |
| NCI-H2126 | 0.437 |
| EMC-BAC-2 | 0.532 |
| NCI-H2085 | 0.279 |
| NCI-H1666 | 0.64 |
| NCI-H647 | 0.123 |
| LK-2 | 0.197 |
| NCI-H2087 | 0.124 |
| NCI-H358 | 0.136 |
| NCI-H2170 | 0.574 |
| H3255 | 0.731 |
| COR-L23 | 0.372 |
| COR-L 105 | 0.768 |
| LOU-NH91 | 0.272 |
| ChaGo-K-1 | 0.473 |
| HCC-44 | 0.274 |
| NCI-H1792 | 0.176 |
| NCI-H1623 | 0.424 |
| NCI-H1563 | 0.452 |
